From patent publication US20250170224A1, “METHODS AND COMPOSITIONS FOR TREATING MICROGLIAL DYSFUNCTION AND IMPROVING METABOLIC DYSFUNCTION” (Ultimate Medicine AG, priority 2021, published 2025)
Entries after “also recorded” stand apart in the source; their conditions may differ.

System: microglia
Format: in vivo
Method: Mice of the aged group in the nontargeted metabolomics analysis were 17-18 months old. Except for nontargeted metabolomics and microbiota profiling, where only male mice were used, all groups included mice from both sexes. Mice were housed under a 12-hour light/12-hour dark cycle and temperatures of 18-23° C. with 40-60% humidity, with food and water given ad libitum. To avoid cage effects, mice from at least three different cages per experimental group were analyzed. […] For modulation of CML in aged animals, 18-month-old SPF housed C57BL/6 mice were treated orally every third day for 10 weeks with vehicle (20% hydroxypropyl-p-cyclodextrin in 1× phosphate-buffered saline (PBS)), 10 mg kg^−1 ellagic acid (EA) or 3,000 U kg^−1 intestinal alkaline phosphatase (IAP). To assess in vivo intestinal permeability, tracer fluorescein isothiocyanate (FITC)-labeled dextran (4 kDa: Sigma-Aldrich) was used. Briefly, mice were deprived of food 4 hours before and both food and water 4 hours after oral gavage using 200 μl of 80 mg ml^−1 FITC-dextran. Blood was collected retro-orbitally after 4 hours and fluorescence intensity was measured on fluorescence plates using an excitation wavelength of 493 nm and an emission wavelength of 518 nm. To assess in vivo intestinal permeability to CML, mice were treated with […] CML (0.36 mM). Blood was collected retro-orbitally immediately before and 4 hours after treatment. CML translocated into the circulation was measured by liquid chromatography-mass spectrometry (LC-MS). All animal experiments were approved by the local administration in Germany (Regierungsprasidium Freiburg) and were performed in accordance with the respective national, federal, and institutional regulations and the guidelines of the Federation of European Laboratory Animal Science Associations.
Mice were lethally anesthetized with ketamine (100 mg kg^−1 body weight) and xylazine (10 mg kg^−1 body weight) followed by perfusion with 1×PBS through the left heart chamber. For histology, brains were kept overnight in 4% paraformaldehyde (PFA). For flow cytometry and magnetic-activated cell sorting (MACS) beads cell sorting, brains were dissected, homogenized and filtered through a […] mesh. […] Myelin was removed from the top layer and the cell pellet was washed once with 1×PBS followed by antibody staining.
Brain specimens from the cortex were first fixed overnight in 3% glutaraldehyde at 4° C., washed with Sorensen buffer, and then transferred to 1% osmium tetroxide for 2 hours at room temperature. Next, samples were dehydrated by a graded series of ethanol (30-100%) followed by 100% propylene oxide, resin/propylene oxide (1:2 (v/v)) and resin/propylene oxide (2:1 (v/v)). Samples were embedded in resin via polymerization for 24 hours at 75° C. Then, 700-nm semithin sections were cut and stained with 2% toluidine blue to define the region of interest for further preparation of 70 nm ultrathin sections using an ultramicrotome (Leica Reichert Ultracut S) after contrasting the sections with uranyl acetate and lead citrate (Leica Reichert Ultrastainer). To assess the mitochondrial phenotype in microglia, images were acquired with a ×7,900 or ×46,000 magnification using a CM100 electron microscope (Philips).
Cell sorting for RT-qPCR and RNA sequencing (RNA-seq) was performed on a MoFlo Astrios (Beckman Coulter; FIG. 7a). Before surface staining, dead cells were excluded by using the Fixable Viability Dye eFluor 780 (1:1,000 dilution; Thermo Fisher Scientific) followed by incubation with Fc receptor blocking antibody CD16/CD32 (1:200 dilution, clone 2.4G2; BD Bioscience). […] To assess microglial cellular reactive oxidative species (ROS), the CellROX DeepRed Reagent ([…]; Thermo Fisher Scientific) was used. To assess mitochondrial activity, Tetramethylrhodamine, Methyl Ester, Perchlorate (50 nM; Thermo Fisher Scientific) and MitoTracker Green FM (20 nM; Thermo Fisher Scientific) were used.

[1] = young-adult mice, i.p. once per day for two weeks

N[C@@H](CCCCNCC(=O)O)C(=O)O [CML, N^6-carboxymethyllysine]
brain CML concentrations after intraperitoneal injection of CML (young-adult SPF mice, targeted metabolomics): increased brain CML concentrations | damage to mitochondrial structures in microglia (electron microscopy) (young-adult mice treated with CML i.p.): caused mitochondrial dysfunction by directly inflicting damage to mitochondrial structures | microglial gene expression (RNA-seq) after intraperitoneal injection (young-adult mice, CML versus vehicle): upregulated the expression of the ROS-related genes S100a9 and S100A8; also recorded: upregulated the expression of the ROS-related genes, S100a9 and S100A8 | cellular ATP stores in microglia [1]: reduced cellular ATP stores | metabolic function (metabolic/mitochondrial activity) of microglia [1]: decreased metabolic activity | recapitulation of the changes found in the microglia of aged mice [1]: partially recapitulate the changes found in the microglia of aged mice | intracellular ROS production / oxidative stress in microglia (young-adult mice, i.p. once per day for two weeks, CellROX): increased oxidative stress
